Columns and labels:
Experiment in all cases: KINOMEscan competition binding
Details in all cases: compound 10.0 µM
PRKACB (human) = PRKACB (human) (UniProt P22694)
MAP3K5 (human) = MAP3K5 (human) (UniProt Q99683)
MAP2K4 (human) = MAP2K4 (human) (UniProt P45985)
STK32C (human) = STK32C (human) (UniProt Q86UX6)
EPHA6 (human) = EPHA6 (human) (UniProt Q9UF33)
NEK5 (human) = NEK5 (human) (UniProt Q6P3R8)
ADCK4 (human) = ADCK4 (human) (UniProt Q96D53)
CSNK1G3 (human) = CSNK1G3 (human) (UniProt Q9Y6M4)
MAPK9 (human) = MAPK9 (human) (UniProt P45984)
TYRO3 (human) = TYRO3 (human) (UniProt Q06418)
IRAK3 (human) = IRAK3 (human) (UniProt Q9Y616)
DCLK1 (human) = DCLK1 (human) (UniProt O15075)
TEC (human) = TEC (human) (UniProt P42680)
CDK9 (human) = CDK9 (human) (UniProt P50750)
CAMK2B (human) = CAMK2B (human) (UniProt Q13554)
ACVRL1 (human) = ACVRL1 (human) (UniProt P37023)
TGFBR2 (human) = TGFBR2 (human) (UniProt P37173)
MAPK15 (human) = MAPK15 (human) (UniProt Q8TD08)
PLK1 (human) = PLK1 (human) (UniProt P53350)
CHEK1 (human) = CHEK1 (human) (UniProt O14757)
PKN1 (human) = PKN1 (human) (UniProt Q16512)
PRKD3 (human) = PRKD3 (human) (UniProt O94806)
PRKCH (human) = PRKCH (human) (UniProt P24723)
NEK7 (human) = NEK7 (human) (UniProt Q8TDX7)
CSNK1G2 (human) = CSNK1G2 (human) (UniProt P78368)
BRAF (human) = BRAF (human) (UniProt P15056)
NEK6 (human) = NEK6 (human) (UniProt Q9HC98)
STK33 (human) = STK33 (human) (UniProt Q9BYT3)
PRKAA2 (human) = PRKAA2 (human) (UniProt P54646)
CHUK (human) = CHUK (human) (UniProt O15111)
[1] = tested on: RET (human), P07949 [V804M]
[2] = tested on: EGFR (human), P00533 [752-759 del]
OXSR1 (human) = OXSR1 (human) (UniProt O95747)
[3] = tested on: KIT (human), P10721 [L576P]
DYRK1A (human) = DYRK1A (human) (UniProt Q13627)
MAP3K2 (human) = MAP3K2 (human) (UniProt Q9Y2U5)
CPK1 (P.falciparum) = tested on: CPK1 (P.falciparum)
SBK1 (human) = SBK1 (human) (UniProt Q52WX2)
HIPK2 (human) = HIPK2 (human) (UniProt Q9H2X6)
IRAK4 (human) = IRAK4 (human) (UniProt Q9NWZ3)

PKN1 (human), sequence (Q16512 whole entry, looked up): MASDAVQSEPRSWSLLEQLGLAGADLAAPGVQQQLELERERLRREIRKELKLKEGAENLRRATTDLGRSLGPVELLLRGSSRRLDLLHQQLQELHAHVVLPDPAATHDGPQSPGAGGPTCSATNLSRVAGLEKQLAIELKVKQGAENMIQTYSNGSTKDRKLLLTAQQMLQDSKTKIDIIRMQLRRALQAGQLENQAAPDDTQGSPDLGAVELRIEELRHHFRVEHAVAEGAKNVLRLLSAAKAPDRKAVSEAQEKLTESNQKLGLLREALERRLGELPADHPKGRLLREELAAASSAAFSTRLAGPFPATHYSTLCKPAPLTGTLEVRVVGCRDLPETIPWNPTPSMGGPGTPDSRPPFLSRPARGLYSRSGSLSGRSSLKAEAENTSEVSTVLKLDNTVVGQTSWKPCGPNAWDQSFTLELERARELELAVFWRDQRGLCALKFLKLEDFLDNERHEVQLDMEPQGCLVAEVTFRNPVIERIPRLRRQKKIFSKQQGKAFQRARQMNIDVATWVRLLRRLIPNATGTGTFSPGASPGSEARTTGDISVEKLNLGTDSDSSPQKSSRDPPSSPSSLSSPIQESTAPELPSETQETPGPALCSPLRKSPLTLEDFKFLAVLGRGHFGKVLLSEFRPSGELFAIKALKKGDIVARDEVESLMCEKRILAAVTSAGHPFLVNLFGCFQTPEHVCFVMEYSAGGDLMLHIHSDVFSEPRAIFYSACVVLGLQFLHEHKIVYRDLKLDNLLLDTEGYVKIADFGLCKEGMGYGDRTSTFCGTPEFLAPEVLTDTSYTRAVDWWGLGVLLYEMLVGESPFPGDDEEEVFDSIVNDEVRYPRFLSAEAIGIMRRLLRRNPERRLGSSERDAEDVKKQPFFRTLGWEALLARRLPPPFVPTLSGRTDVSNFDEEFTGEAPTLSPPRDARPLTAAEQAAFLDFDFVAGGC
MAP2K4 (human), sequence (P45985 whole entry, looked up): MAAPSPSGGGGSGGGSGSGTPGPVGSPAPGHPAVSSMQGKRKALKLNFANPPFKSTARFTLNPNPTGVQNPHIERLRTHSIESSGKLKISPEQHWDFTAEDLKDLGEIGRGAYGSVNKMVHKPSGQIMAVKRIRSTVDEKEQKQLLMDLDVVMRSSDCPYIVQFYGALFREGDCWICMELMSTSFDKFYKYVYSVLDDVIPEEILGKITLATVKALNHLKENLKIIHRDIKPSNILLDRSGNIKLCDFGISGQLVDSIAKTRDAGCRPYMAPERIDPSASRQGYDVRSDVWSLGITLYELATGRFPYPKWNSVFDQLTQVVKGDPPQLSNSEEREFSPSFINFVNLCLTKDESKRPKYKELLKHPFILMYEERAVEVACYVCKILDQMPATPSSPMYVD
NEK6 (human), sequence (Q9HC98 whole entry, looked up): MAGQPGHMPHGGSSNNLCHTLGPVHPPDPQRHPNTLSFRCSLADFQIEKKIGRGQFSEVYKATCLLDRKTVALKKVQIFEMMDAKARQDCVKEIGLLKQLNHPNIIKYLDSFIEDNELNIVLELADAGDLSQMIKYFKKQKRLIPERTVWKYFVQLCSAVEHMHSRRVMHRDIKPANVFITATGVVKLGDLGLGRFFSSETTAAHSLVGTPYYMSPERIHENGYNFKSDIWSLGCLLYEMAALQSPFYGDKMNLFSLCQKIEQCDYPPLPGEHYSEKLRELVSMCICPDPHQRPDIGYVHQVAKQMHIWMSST
EPHA6 (human), sequence (Q9UF33 whole entry, looked up): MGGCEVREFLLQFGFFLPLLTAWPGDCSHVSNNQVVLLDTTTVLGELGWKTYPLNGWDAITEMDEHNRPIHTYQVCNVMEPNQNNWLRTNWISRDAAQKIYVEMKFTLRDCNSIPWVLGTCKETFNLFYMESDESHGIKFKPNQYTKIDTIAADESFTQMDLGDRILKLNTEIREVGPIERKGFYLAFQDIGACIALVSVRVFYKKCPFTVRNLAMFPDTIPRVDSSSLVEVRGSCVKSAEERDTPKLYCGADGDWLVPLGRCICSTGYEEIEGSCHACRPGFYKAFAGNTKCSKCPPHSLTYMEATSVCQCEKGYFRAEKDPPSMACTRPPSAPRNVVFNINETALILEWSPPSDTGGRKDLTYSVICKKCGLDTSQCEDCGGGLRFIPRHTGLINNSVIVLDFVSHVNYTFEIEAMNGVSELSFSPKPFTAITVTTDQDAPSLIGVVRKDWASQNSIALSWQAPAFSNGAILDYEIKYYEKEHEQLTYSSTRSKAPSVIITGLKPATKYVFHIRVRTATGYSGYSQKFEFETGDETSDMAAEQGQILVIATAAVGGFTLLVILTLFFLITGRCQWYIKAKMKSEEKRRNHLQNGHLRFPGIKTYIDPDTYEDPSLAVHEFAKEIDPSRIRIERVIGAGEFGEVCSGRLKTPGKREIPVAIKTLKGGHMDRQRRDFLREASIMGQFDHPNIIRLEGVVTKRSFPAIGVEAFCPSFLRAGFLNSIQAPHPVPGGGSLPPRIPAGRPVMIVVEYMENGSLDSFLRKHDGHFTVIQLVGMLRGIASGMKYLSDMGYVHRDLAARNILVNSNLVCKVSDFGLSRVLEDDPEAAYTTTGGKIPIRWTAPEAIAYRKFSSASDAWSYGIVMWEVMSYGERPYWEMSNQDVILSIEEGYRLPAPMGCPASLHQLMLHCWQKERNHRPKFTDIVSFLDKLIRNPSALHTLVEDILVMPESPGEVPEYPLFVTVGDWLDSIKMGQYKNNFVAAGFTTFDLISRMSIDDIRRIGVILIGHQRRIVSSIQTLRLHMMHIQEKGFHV
CHEK1 (human), sequence (O14757 whole entry, looked up): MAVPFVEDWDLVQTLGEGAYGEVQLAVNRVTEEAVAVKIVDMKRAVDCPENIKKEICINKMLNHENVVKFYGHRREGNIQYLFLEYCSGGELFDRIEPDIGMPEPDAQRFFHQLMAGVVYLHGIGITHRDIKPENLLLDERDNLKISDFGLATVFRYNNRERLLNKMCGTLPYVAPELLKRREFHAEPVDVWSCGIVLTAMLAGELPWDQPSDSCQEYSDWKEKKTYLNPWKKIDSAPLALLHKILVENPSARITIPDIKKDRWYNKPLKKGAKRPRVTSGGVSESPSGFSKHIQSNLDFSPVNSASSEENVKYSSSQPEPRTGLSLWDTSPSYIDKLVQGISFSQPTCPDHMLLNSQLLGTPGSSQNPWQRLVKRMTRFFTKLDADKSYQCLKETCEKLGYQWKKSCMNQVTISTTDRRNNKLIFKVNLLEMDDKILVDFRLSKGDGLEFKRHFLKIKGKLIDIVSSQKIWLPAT
CSNK1G2 (human), sequence (P78368 whole entry, looked up): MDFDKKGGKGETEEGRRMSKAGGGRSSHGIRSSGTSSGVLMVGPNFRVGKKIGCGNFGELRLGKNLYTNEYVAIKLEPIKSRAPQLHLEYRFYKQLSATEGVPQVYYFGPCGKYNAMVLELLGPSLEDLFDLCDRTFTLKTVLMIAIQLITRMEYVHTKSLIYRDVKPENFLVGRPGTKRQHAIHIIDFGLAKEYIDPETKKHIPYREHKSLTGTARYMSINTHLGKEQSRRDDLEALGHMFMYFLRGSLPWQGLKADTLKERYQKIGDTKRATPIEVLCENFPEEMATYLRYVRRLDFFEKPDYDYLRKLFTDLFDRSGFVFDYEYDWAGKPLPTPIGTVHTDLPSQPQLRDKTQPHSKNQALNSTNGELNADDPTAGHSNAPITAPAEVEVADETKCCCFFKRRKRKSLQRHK
NEK7 (human), sequence (Q8TDX7 whole entry, looked up): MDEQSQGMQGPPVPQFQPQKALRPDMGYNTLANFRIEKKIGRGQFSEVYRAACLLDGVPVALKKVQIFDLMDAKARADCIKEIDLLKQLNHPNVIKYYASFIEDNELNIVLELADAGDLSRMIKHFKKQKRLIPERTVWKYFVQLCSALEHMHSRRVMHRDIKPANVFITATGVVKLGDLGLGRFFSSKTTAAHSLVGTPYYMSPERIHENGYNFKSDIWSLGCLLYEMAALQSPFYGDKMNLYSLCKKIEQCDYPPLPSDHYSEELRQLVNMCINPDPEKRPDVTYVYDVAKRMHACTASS
MAPK9 (human), sequence (P45984 whole entry, looked up): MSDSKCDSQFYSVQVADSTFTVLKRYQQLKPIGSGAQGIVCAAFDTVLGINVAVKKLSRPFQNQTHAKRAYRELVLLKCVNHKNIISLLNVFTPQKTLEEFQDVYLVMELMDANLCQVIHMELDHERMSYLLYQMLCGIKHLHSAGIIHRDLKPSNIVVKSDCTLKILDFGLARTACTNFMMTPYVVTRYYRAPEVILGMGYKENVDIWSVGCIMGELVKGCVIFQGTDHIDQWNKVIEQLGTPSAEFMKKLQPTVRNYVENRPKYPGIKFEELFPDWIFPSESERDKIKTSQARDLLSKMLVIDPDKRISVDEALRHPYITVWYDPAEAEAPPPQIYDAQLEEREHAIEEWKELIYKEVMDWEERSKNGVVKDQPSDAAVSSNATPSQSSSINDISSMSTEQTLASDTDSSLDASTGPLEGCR
PRKAA2 (human), sequence (P54646 whole entry, looked up): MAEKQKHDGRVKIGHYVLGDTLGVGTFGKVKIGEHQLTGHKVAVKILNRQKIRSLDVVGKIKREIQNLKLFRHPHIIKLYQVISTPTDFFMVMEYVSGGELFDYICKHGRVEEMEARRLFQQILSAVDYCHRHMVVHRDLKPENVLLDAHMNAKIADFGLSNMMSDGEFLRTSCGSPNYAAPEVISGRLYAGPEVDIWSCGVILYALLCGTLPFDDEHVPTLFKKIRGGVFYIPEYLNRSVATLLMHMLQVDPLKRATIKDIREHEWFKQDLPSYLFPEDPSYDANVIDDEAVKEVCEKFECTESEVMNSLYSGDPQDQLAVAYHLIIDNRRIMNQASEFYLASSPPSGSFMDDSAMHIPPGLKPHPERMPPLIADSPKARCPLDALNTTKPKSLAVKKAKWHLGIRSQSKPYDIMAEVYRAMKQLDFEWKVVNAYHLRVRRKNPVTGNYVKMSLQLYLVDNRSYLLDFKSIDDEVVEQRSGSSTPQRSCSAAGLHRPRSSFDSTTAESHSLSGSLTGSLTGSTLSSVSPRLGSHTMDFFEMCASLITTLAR

Row | Structure (SMILES) | kinase still bound, per cent of control (PRKACB (human)) [%] | kinase still bound, per cent of control (MAP3K5 (human)) [%] | kinase still bound, per cent of control (MAP2K4 (human)) [%] | kinase still bound, per cent of control (STK32C (human)) [%] | kinase still bound, per cent of control (EPHA6 (human)) [%] | kinase still bound, per cent of control (NEK5 (human)) [%] | kinase still bound, per cent of control (ADCK4 (human)) [%] | kinase still bound, per cent of control (CSNK1G3 (human)) [%] | kinase still bound, per cent of control (MAPK9 (human)) [%] | kinase still bound, per cent of control (TYRO3 (human)) [%] | kinase still bound, per cent of control (IRAK3 (human)) [%] | kinase still bound, per cent of control (DCLK1 (human)) [%] | kinase still bound, per cent of control (TEC (human)) [%] | kinase still bound, per cent of control (CDK9 (human)) [%] | kinase still bound, per cent of control (ACVRL1 (human)) [%] | kinase still bound, per cent of control (TGFBR2 (human)) [%] | kinase still bound, per cent of control (MAPK15 (human)) [%] | kinase still bound, per cent of control (PLK1 (human)) [%] | kinase still bound, per cent of control (CHEK1 (human)) [%] | kinase still bound, per cent of control (PKN1 (human)) [%] | also measured
1 | CCN(CC)CCCCNc1ncc2cc(-c3cc(OC)cc(OC)c3)c(NC(=O)NC(C)(C)C)nc2n1 | 100 | 100 | 100 | 100 | 100 | 100 | 100 | 100 | 100 | 100 | 100 | 100 | 100 | 100 | 100 | 100 | 100 | 100 | 100 | 100 | kinase still bound, per cent of control (CAMK2B (human)): 100%; kinase still bound, per cent of control (PRKD3 (human)): 100%; kinase still bound, per cent of control (PRKCH (human)): 100%; kinase still bound, per cent of control (NEK7 (human)): 100%; kinase still bound, per cent of control (CSNK1G2 (human)): 100%; kinase still bound, per cent of control (BRAF (human)): 100%; kinase still bound, per cent of control (NEK6 (human)): 100%; kinase still bound, per cent of control (STK33 (human)): 100%; kinase still bound, per cent of control (PRKAA2 (human)): 100%
2 | Cc1n[nH]c2ccc(-c3cncc(OC[C@@H](N)Cc4c[nH]c5ccccc45)c3)cc12 | 0.45 | 100 | 100 | 100 | 100 | 100 | 100 | 0.15 | 100 | 100 | 30 | 100 | 100 | 1.9 | 100 | 100 | 0 | 100 | 100 | 0 | kinase still bound, per cent of control (CHUK (human)): 1%; kinase still bound, per cent of control [1]: 10%; kinase still bound, per cent of control (PRKD3 (human)): 1.6%; kinase still bound, per cent of control (PRKCH (human)): 1.4%; kinase still bound, per cent of control (NEK7 (human)): 100%; kinase still bound, per cent of control (CSNK1G2 (human)): 0.65%; kinase still bound, per cent of control (BRAF (human)): 100%; kinase still bound, per cent of control (NEK6 (human)): 100%; kinase still bound, per cent of control (STK33 (human)): 2.6%; kinase still bound, per cent of control (PRKAA2 (human)): 100%
3 | O=C1NC(=O)/C(=C/c2ccc3nccc(-c4ccncc4)c3c2)S1 | 31 | 58 | 9.6 | 96 | 83 | 100 | 35 | 2.4 | 39 | 100 | 14 | 77 | 73 | 16 | 85 | 73 | 0.05 | 26 | 57 | 56 | kinase still bound, per cent of control [2]: 95%; kinase still bound, per cent of control (CHUK (human)): 44%; kinase still bound, per cent of control (OXSR1 (human)): 87%; kinase still bound, per cent of control [3]: 34%; kinase still bound, per cent of control [1]: 96%; kinase still bound, per cent of control (DYRK1A (human)): 0%; kinase still bound, per cent of control (CAMK2B (human)): 9.6%; kinase still bound, per cent of control (MAP3K2 (human)): 90%; kinase still bound, per cent of control (CPK1 (P.falciparum)): 11%; kinase still bound, per cent of control (SBK1 (human)): 73%; kinase still bound, per cent of control (HIPK2 (human)): 0.15%; kinase still bound, per cent of control (PRKD3 (human)): 74%; kinase still bound, per cent of control (IRAK4 (human)): 47%; kinase still bound, per cent of control (PRKCH (human)): 88%; kinase still bound, per cent of control (NEK7 (human)): 88%; kinase still bound, per cent of control (CSNK1G2 (human)): 0.05%; kinase still bound, per cent of control (NEK6 (human)): 81%; kinase still bound, per cent of control (STK33 (human)): 0.55%; kinase still bound, per cent of control (PRKAA2 (human)): 93%
